The source of these data is US20230295115A1, “SUBSTITUTED ISOQUINOLINYLMETHYL AMIDES, ANALOGUES THEREOF, AND METHODS USING SAME” (priority 2020, published 2023).

pEC50: −log10 of the molar value. Where two headings read alike, the source gives them in different places. A value given as a limit tells only on which side of the number the result lay.

The test system of this assay is HBV rcDNA. The assay can be described thus: HepDE19 assay with bDNA quantitation of HBV rcDNA. Format: cell-based, hepatitis B virus (HBV). A digest of the protocol:
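HepDE19 cells were switched to tetracycline-free medium and exposed to compound (0.5% DMSO final) for 7 days at 37° C. rcDNA was then quantified by bDNA with an HBV-specific probe set. In parallel, viability was read as ATP content (CellTiter-Glo) after 4 days on replicate plates.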

[1] abbreviates: HepDE19 cells, 7 day incubation, rcDNA measured by Quantigene 2.0 bDNA assay, top concentration 25 μM; read-out: DE-19bDNA EC50.
Where [2] appears, read: read-out: DE-19bDNA EC50; HepDE19 cells, 7 day incubation, rcDNA measured by Quantigene 2.0 bDNA assay, top concentration 25 μM.

`CC(c1c[nH]c(=O)c2cc(F)c(F)cc12)N(C)C(=O)c1ccc(F)c(F)c1` (single isomer, unassigned) [Compound 137, N-(1-(6,7-Difluoro-1-oxo-1,2-dihydroisoquinolin-4-yl)ethyl)-3,4-difluoro-N-methylbenzamide]: under setting [1], the pEC50 is 4.65.

Consider `CC(c1c[nH]c(=O)c2cc(F)c(F)cc12)N(C)C(=O)c1ccc(F)c(F)c1` (single isomer, unassigned) [Compound 138, N-(1-(6,7-Difluoro-1-oxo-1,2-dihydroisoquinolin-4-yl)ethyl)-3,4-difluoro-N-methylbenzamide], for which the pEC50 under setting [1] was 6.35.

In the case of `CC(c1c[nH]c(=O)c2cc(F)c(F)cc12)N(C)C(=O)c1ccc2c(ccn2C)c1` (single isomer, unassigned) [Compound 139, N-(1-(6,7-difluoro-1-oxo-1,2-dihydroisoquinolin-4-yl)ethyl)-N,1-dimethyl-1H-indole-5-carboxamide], under setting [1], the pEC50 was < 4.60.

As to `CC(c1c[nH]c(=O)c2cc(F)c(F)cc12)N(C)C(=O)c1ccc2c(ccn2C)c1` (single isomer, unassigned) [Compound 140, N-(1-(6,7-difluoro-1-oxo-1,2-dihydroisoquinolin-4-yl)ethyl)-N,1-dimethyl-1H-indole-5-carboxamide], the pEC50 under setting [1] is 6.92.

For the compound `CC(c1c[nH]c(=O)c2cc(F)c(F)cc12)N(C)C(=O)c1ccc2ccn(C)c2c1` (single isomer, unassigned) [Compound 141, N-(1-(6,7-Difluoro-1-oxo-1,2-dihydroisoquinolin-4-yl)ethyl)-N,1-dimethyl-1H-indole-6-carboxamide], the pEC50 under setting [1] was < 4.60.

As for `CC(c1c[nH]c(=O)c2cc(F)c(F)cc12)N(C)C(=O)c1ccc2ccn(C)c2c1` (single isomer, unassigned) [Compound 142, N-(1-(6,7-Difluoro-1-oxo-1,2-dihydroisoquinolin-4-yl)ethyl)-N,1-dimethyl-1H-indole-6-carboxamide], under setting [1], the pEC50 was 6.41.

Regarding `CC(c1cn(C)c(=O)c2cc(F)c(F)cc12)N(C)C(=O)c1ccc(Br)c(F)c1` (single isomer, unassigned) [Compound 161, 4-bromo-N-(1-(6,7-difluoro-2-methyl-1-oxo-1,2-dihydroisoquinolin-4-yl)ethyl)-3-fluoro-N-methylbenzamide], the pEC50 under setting [1] is 5.51.

Regarding `CC(c1cn(C)c(=O)c2cc(F)c(F)cc12)N(C)C(=O)c1ccc(Br)c(F)c1` (single isomer, unassigned) [Compound 162, 4-bromo-N-(1-(6,7-difluoro-2-methyl-1-oxo-1,2-dihydroisoquinolin-4-yl)ethyl)-3-fluoro-N-methylbenzamide], the pEC50 under setting [1] is 7.52.

With `COc1ncc(C(C)N(C)C(=O)c2ccc(Br)cc2)c2cc(F)c(F)cc12` (single isomer, unassigned) [Compound 163, 4-Bromo-N-(1-(6,7-difluoro-1-methoxyisoquinolin-4-yl)ethyl)-N-methylbenzamide], the pEC50 under setting [2] is 6.36.

Turning to `COc1ncc(C(C)N(C)C(=O)c2ccc(Br)cc2)c2cc(F)c(F)cc12` (single isomer, unassigned) [Compound 164, 4-Bromo-N-(1-(6,7-difluoro-1-methoxyisoquinolin-4-yl)ethyl)-N-methylbenzamide], the pEC50 under setting [2] is 4.76.

With `CC(c1cn(C)c(=O)c2cc(F)c(F)cc12)N(C)C(=O)c1ccc(C(F)(F)F)c(F)c1` (single isomer, unassigned) [Compound 165, N-(1-(6,7-difluoro-2-methyl-1-oxo-1,2-dihydroisoquinolin-4-yl)ethyl)-3-fluoro-N-methyl-4-(trifluoromethyl)benzamide], the pEC50 (Hepatitis B virus, HepDE19, 168 h, HepDE19 cells, 7 day incubation, rcDNA measured by Quantigene 2.0 bDNA assay, top concentration 25 μM; read-out: DE-19bDNA EC50) was 5.63.

Take `CC(c1cn(C)c(=O)c2cc(F)c(F)cc12)N(C)C(=O)c1ccc(C(F)(F)F)c(F)c1` (single isomer, unassigned) [Compound 166, N-(1-(6,7-difluoro-2-methyl-1-oxo-1,2-dihydroisoquinolin-4-yl)ethyl)-3-fluoro-N-methyl-4-(trifluoromethyl)benzamide]: under setting [1], the pEC50 was 5.48.

As for `CC(c1cn(C)c(=O)c2cc(F)c(F)cc12)N(C)C(=O)c1ccc(Br)cc1` (single isomer, unassigned) [Compound 167, 4-bromo-N-(1-(6,7-difluoro-2-methyl-1-oxo-1,2-dihydroisoquinolin-4-yl)ethyl)-N-methylbenzamide], the pEC50 under setting [1] is 5.63.

Regarding `CC(c1cn(C)c(=O)c2cc(F)c(F)cc12)N(C)C(=O)c1ccc(Br)cc1` (single isomer, unassigned) [Compound 168, 4-bromo-N-(1-(6,7-difluoro-2-methyl-1-oxo-1,2-dihydroisoquinolin-4-y1)ethyl)-N-methylbenzamide], under setting [1], the pEC50 is 7.52.

In the case of `COc1ncc(C(C)N(C)C(=O)c2cc3cc(F)c(F)cc3[nH]2)c2cc(F)c(F)cc12` (single isomer, unassigned) [Compound 169, N-(1-(6,7-Difluoro-1-methoxyisoquinolin-4-yl)ethyl)-5,6-difluoro-N-methyl-1H-indole-2-carboxamide], the pEC50 under setting [1] is 6.89.

With `COc1ncc(C(C)N(C)C(=O)c2cc3cc(F)c(F)cc3[nH]2)c2cc(F)c(F)cc12` (single isomer, unassigned) [Compound 170, N-(1-(6,7-Difluoro-1-methoxyisoquinolin-4-yl)ethyl)-5,6-difluoro-N-methyl-1H-indole-2-carboxamide], under setting [1], the pEC50 was 5.30.

For `CC(c1cn(C)c(=O)c2cc(F)c(F)cc12)N(C)C(=O)c1cc2c(F)cccn2c1` (single isomer, unassigned) [Compound 171, N-(1-(6,7-difluoro-2-methyl-1-oxo-1,2-dihydroisoquinolin-4-yl)ethyl)-8-fluoro-N-methylindolizine-2-carboxamide], under setting [1], the pEC50 is 4.78.

On to `CC(c1cn(C)c(=O)c2cc(F)c(F)cc12)N(C)C(=O)c1cc2c(F)cccn2c1` (single isomer, unassigned) [Compound 172, N-(1-(6,7-difluoro-2-methyl-1-oxo-1,2-dihydroisoquinolin-4-yl)ethyl)-8-fluoro-N-methylindolizine-2-carboxamide], for which the pEC50 under setting [1] was 7.05.

`CC(c1cn(C)c(=O)c2cc(F)c(F)cc12)N(C)C(=O)c1cc2cc(F)c(F)cc2[nH]1` (single isomer, unassigned) [Compound 173, N-(1-(6,7-difluoro-2-methyl-1-oxo-1,2-dihydroisoquinolin-4-yl)ethyl)-5,6-difluoro-N-methyl-1H-indole-2-carboxamide]: the pEC50 under setting [1] was 5.67.

For `CC(c1cn(C)c(=O)c2cc(F)c(F)cc12)N(C)C(=O)c1cc2cc(F)c(F)cc2[nH]1` (single isomer, unassigned) [Compound 174, N-(1-(6,7-difluoro-2-methyl-1-oxo-1,2-dihydroisoquinolin-4-yl)ethyl)-5,6-difluoro-N-methyl-1H-indole-2-carboxamide], the pEC50 under setting [1] was 7.30.

For `COc1ncc(C(C)N(C)C(=O)c2ccc(C(F)(F)F)c(F)c2)c2cc(F)c(F)cc12` (single isomer, unassigned) [Compound 175, N-(1-(6,7-Difluoro-1-methoxyisoquinolin-4-yl)ethyl)-3-fluoro-N-methyl-4-(trifluoromethyl)benzamide], the pEC50 under setting [1] was 4.61.

Take `COc1ncc(C(C)N(C)C(=O)c2ccc(C(F)(F)F)c(F)c2)c2cc(F)c(F)cc12` (single isomer, unassigned) [Compound 176, N-(1-(6,7-Difluoro-1-methoxyisoquinolin-4-yl)ethyl)-3-fluoro-N-methyl-4-(trifluoromethyl)benzamide]: the pEC50 under setting [1] was 6.25.

For `COc1ncc(C(C)N(C)C(=O)c2ccc(Br)c(F)c2)c2cc(F)c(F)cc12` (single isomer, unassigned) [Compound 177, 4-Bromo-N-(1-(6,7-difluoro-1-methoxyisoquinolin-4-yl)ethyl)-3-fluoro-N-methylbenzamide], the pEC50 under setting [1] was 4.69.

Turning to `COc1ncc(C(C)N(C)C(=O)c2ccc(Br)c(F)c2)c2cc(F)c(F)cc12` (single isomer, unassigned) [Compound 178, 4-Bromo-N-(1-(6,7-difluoro-1-methoxyisoquinolin-4-yl)ethyl)-3-fluoro-N-methylbenzamide], under setting [1], the negative logarithm of the EC50 (pEC50) is 6.70.

With `COc1ncc(C(C)N(C)C(=O)c2cc3c(F)cccn3c2)c2cc(F)c(F)cc12` (single isomer, unassigned) [Compound 179, N-(1-(6,7-difluoro-1-methoxyisoquinolin-4-yl)ethyl)-8-fluoro-N-methylindolizine-2-carboxamide], the pEC50 under setting [1] was 5.03.

Take `COc1ncc(C(C)N(C)C(=O)c2cc3c(F)cccn3c2)c2cc(F)c(F)cc12` (single isomer, unassigned) [Compound 180, N-(1-(6,7-difluoro-1-methoxyisoquinolin-4-yl)ethyl)-8-fluoro-N-methylindolizine-2-carboxamide]: the pEC50 under setting [1] is 6.62.

As for `COc1ncc(C(C)N(C)C(=O)[C@@H]2Cc3ccccc3N2)c2cc(F)c(F)cc12` (single isomer, unassigned) [Compound 181], the pEC50 under setting [1] is 6.54.

As for `COc1ncc(C(C)N(C)C(=O)[C@@H]2Cc3ccccc3N2)c2cc(F)c(F)cc12` (single isomer, unassigned) [Compound 182], the pEC50 under setting [1] was 4.61.

In the case of `C[C@H](c1c[nH]c(=O)c2cc(F)c(F)cc12)N(C)C(=O)c1cc2c([nH]1)CCCC2` [Compound 34, (R)-N-(1-(6,7-Difluoro-1-oxo-1,2-dihydroisoquinolin-4-yl)ethyl)-N-methyl-4,5,6,7-tetrahydro-1H-indole-2-carboxamide], where the note is “Hepatitis B virus, HepDE19, 168 h, read-out: DE-19bDNA EC50 (μM), HepDE19 cells, 7 day incubation, rcDNA measured by Quantigene 2.0 bDNA assay, top concentration 25 μM”, the EC50 was 0.05 µM.
